Reference: patent US12466827B2, “1,3,4-oxadiazole derivative compounds as histone deacetylase 6 inhibitor, and the pharmaceutical composition comprising the same” (CHONG KUN DANG PHARMACEUTICAL CORP., priority 2020, dated 2025)

Experiments:
human recombinant HDAC6 = molecular target: T1, human recombinant HDAC6 (Homo sapiens, UniProt Q9UBN7); test: In vitro HDAC enzyme activity inhibition assay (HDAC6); format: biochemical; details: for HDAC6 selectivity (fold): HDAC6 over HDAC1; for IC50: same protocol as the HDAC1 test, human recombinant HDAC6 (Calbiochem)
T1 construct: purchased Calbiochem Inc. 382180
T1 sequence (Q9UBN7 1-1215): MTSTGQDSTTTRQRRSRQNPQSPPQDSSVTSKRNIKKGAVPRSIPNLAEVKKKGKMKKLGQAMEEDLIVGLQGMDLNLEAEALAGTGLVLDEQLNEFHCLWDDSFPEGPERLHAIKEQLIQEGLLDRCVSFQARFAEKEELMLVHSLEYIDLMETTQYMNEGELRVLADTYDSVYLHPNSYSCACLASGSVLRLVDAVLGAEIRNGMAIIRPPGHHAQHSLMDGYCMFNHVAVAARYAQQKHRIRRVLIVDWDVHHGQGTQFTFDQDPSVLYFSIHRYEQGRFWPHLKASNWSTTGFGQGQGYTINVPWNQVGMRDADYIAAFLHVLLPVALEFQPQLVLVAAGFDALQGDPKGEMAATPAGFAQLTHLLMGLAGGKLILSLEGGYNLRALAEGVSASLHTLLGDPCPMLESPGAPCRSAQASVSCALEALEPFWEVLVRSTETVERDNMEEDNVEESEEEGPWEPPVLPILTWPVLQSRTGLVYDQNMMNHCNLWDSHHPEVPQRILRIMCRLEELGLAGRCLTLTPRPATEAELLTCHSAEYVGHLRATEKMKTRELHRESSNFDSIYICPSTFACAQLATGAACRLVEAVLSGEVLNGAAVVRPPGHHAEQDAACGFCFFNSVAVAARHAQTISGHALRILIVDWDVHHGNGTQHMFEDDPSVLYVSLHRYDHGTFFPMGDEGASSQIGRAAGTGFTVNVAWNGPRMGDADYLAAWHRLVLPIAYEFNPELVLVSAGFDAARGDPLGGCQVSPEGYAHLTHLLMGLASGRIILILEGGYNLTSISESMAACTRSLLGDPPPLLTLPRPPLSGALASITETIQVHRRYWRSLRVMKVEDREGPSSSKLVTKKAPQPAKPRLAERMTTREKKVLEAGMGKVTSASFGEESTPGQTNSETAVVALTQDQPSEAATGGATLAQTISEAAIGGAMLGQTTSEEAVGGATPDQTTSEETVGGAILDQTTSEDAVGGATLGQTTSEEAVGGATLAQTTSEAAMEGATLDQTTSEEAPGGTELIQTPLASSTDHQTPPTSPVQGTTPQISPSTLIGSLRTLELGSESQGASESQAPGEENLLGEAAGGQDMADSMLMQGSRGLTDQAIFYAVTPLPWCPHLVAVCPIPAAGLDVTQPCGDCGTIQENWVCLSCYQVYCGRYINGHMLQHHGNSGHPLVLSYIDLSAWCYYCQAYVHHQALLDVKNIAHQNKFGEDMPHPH
Procedure: (§1) In order to confirm the selectivity of the compounds represented by Chemical Formula I of the present invention to HDAC6 through HDAC1 and HDAC6 enzyme activity inhibition experiments, a comparison experiment was performed using the material that has already been developed as a control group.
(§2) HDAC enzyme activity was measured using the HDAC Fluorimetric Drug Discovery Kit (Enzo Life Sciences, Inc., BML-AK511, 516). For the HDAC1 enzyme activity test, human recombinant HDAC1 (BML-SE456) was used as an enzyme source and Fluor de Lys-SIRT1 (BNL-KI177) was used as a substrate. After dispensing 5-fold diluted compounds into a 96-well plate, 0.3 μg of enzyme and 10 μM substrate were added to each well of the plate and allowed to react at 30° C. for 60 minutes. Next, Fluor de Lys Developer II (BML-KI176) was added and reacted for 30 minutes to complete the reaction, and then the fluorescence values (Ex 360, Em 460) were measured using a multi-plate reader (Flexstation 3, Molecular Device). The HDAC6 enzymes were tested using human recombinant HDAC6 (382180) from Calbiochem Inc., according to the same protocol as the HDAC1 enzyme activity test method. With respect to the final result values, respective IC50 values were calculated using GraphPad Prism 4.0 program, and results thereof were summarized in Table 4 below.

human recombinant HDAC1 = molecular target: T2, human recombinant HDAC1 (Homo sapiens, UniProt Q13547); test: In vitro HDAC enzyme activity inhibition assay (HDAC1); format: biochemical; details: Fluor de Lys-SIRT1 substrate 10 μM, 30° C., 60 minutes, fluorescence
T2 construct: purchased Enzo Life Sciences, Inc. BML-SE456
T2 sequence (Q13547 whole entry): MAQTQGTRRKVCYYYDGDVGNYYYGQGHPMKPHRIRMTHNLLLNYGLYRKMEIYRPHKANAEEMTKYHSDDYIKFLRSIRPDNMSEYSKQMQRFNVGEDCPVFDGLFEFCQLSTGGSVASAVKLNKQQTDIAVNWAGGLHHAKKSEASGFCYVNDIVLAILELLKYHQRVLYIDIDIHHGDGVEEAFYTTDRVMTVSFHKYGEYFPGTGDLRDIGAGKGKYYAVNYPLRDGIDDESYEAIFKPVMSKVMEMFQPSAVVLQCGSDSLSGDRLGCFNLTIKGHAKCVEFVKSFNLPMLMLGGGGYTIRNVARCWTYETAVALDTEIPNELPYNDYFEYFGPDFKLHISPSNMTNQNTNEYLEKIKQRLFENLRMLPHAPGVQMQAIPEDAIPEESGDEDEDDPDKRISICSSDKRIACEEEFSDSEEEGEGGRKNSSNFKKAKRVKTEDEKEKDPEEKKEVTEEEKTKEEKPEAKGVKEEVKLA
Procedure: as §1, §2

SMILES	HDAC6 selectivity (fold) (human recombinant HDAC6)	IC50 (human recombinant HDAC6) [nM]	IC50 (human recombinant HDAC1) [nM]
CN1CCC(S(=O)(=O)N(Cc2cn3ccc(-c4nnc(C(F)F)o4)cc3n2)c2ccccc2)CC1 [Compound 3778, N-((7-(5-(difluoromethyl)-1,3,4-oxadiazol-2-yl)imidazo[1,2-a]pyridin-2-yl)methyl)-1-methyl-N-phenylpiperidine-4-sulfonamide]	549	91	> 50000
O=S(=O)(C1CCN(C2COC2)CC1)N(Cc1cn2ccc(-c3nnc(C(F)F)o3)cc2n1)c1ccccc1 [Compound 3779, N-((7-(5-(difluoromethyl)-1,3,4-oxadiazol-2-yl)imidazo[1,2-a]pyridin-2-yl)methyl)-1-(oxetan-3-yl)-N-phenylpiperidine-4-sulfonamide]	321	156	> 50000
CCN1CCC(S(=O)(=O)N(Cc2cn3ccc(-c4nnc(C(F)F)o4)cc3n2)c2ccccc2)CC1 [Compound 4214, N-((7-(5-(difluoromethyl)-1,3,4-oxadiazol-2-yl)imidazo[1,2-a]pyridin-2-yl)methyl)-1-ethyl-N-phenylpiperidine-4-sulfonamide]	278	180	> 50000
CC(C)N1CCC(S(=O)(=O)N(Cc2cn3ccc(-c4nnc(C(F)F)o4)cc3n2)c2ccccc2)CC1 [Compound 4215, N-((7-(5-(difluoromethyl)-1,3,4-oxadiazol-2-yl)imidazo[1,2-a]pyridin-2-yl)methyl)-1-isopropyl-N-phenylpiperidine-4-sulfonamide]	275	182	> 50000
CC(CO)N1CCC(S(=O)(=O)N(Cc2cn3ccc(-c4nnc(C(F)F)o4)cc3n2)c2ccccc2)CC1 (stereo not drawn) [Compound 4216, N-((7-(5-(difluoromethyl)-1,3,4-oxadiazol-2-yl)imidazo[1,2-a]pyridin-2-yl)methyl)-1-(1-hydroxypropan-2-yl)-N-phenylpiperidine-4-sulfonamide]	420	119	> 50000
O=S(=O)(C1CCN(C2CCC2)CC1)N(Cc1cn2ccc(-c3nnc(C(F)F)o3)cc2n1)c1ccccc1 [Compound 4217, 1-cyclobutyl-N-((7-(5-(difluoromethyl)-1,3,4-oxadiazol-2-yl)imidazo[1,2-a]pyridin-2-yl)methyl)-N-phenylpiperidine-4-sulfonamide]	410	122	> 50000
O=S(=O)(C1CCN(C2CCCCC2)CC1)N(Cc1cn2ccc(-c3nnc(C(F)F)o3)cc2n1)c1ccccc1 [Compound 4218, 1-cyclohexyl-N-((7-(5-(difluoromethyl)-1,3,4-oxadiazol-2-yl)imidazo[1,2-a]pyridin-2-yl)methyl)-N-phenylpiperidine-4-sulfonamide]	433	116	> 50000
O=S(=O)(C1CCN(C2CCOCC2)CC1)N(Cc1cn2ccc(-c3nnc(C(F)F)o3)cc2n1)c1ccccc1 [Compound 4219, N-((7-(5-(difluoromethyl)-1,3,4-oxadiazol-2-yl)imidazo[1,2-a]pyridin-2-yl)methyl)-N-phenyl-1-(tetrahydro-2H-pyran-4-yl)piperidine-4-sulfonamide]	482	104	> 50000
O=S(=O)(C1CCN(C2CCC(F)(F)CC2)CC1)N(Cc1cn2ccc(-c3nnc(C(F)F)o3)cc2n1)c1ccccc1 [Compound 4220, 1-(4,4-difluorocyclohexyl)-N-((7-(5-(difluoromethyl)-1,3,4-oxadiazol-2-yl)imidazo[1,2-a]pyridin-2-yl)methyl)-N-phenylpiperidine-4-sulfonamide]	320	156	> 50000
CC(=O)N1CCC(S(=O)(=O)N(Cc2cn3ccc(-c4nnc(C(F)F)o4)cc3n2)c2ccccc2)CC1 [Compound 4221, 1-acetyl-N-((7-(5-(difluoromethyl)-1,3,4-oxadiazol-2-yl)imidazo[1,2-a]pyridin-2-yl)methyl)-N-phenylpiperidine-4-sulfonamide]	364	137	> 50000
CCC(=O)N1CCC(S(=O)(=O)N(Cc2cn3ccc(-c4nnc(C(F)F)o4)cc3n2)c2ccccc2)CC1 [Compound 4222, N-((7-(5-(difluoromethyl)-1,3,4-oxadiazol-2-yl)imidazo[1,2-a]pyridin-2-yl)methyl)-N-phenyl-1-propionylpiperidine-4-sulfonamide]	229	218	> 50000
O=C(C1CCC1)N1CCC(S(=O)(=O)N(Cc2cn3ccc(-c4nnc(C(F)F)o4)cc3n2)c2ccccc2)CC1 [Compound 4223, 1-(cyclobutanecarbonyl)-N-((7-(5-(difluoromethyl)-1,3,4-oxadiazol-2-yl)imidazo[1,2-a]pyridine-2-yl)methyl)-N-phenylpiperidine-4-sulfonamide]	392	128	> 50000
O=C(N1CCC(S(=O)(=O)N(Cc2cn3ccc(-c4nnc(C(F)F)o4)cc3n2)c2ccccc2)CC1)C(F)(F)F [Compound 4224, N-((7-(5-(difluoromethyl)-1,3,4-oxadiazol-2-yl)imidazo[1,2-a]pyridin-2-yl)methyl)-N-phenyl-1-(2,2,2-trifluoroacetyl)piperidine-4-sulfonamide]	354	141	> 50000
CS(=O)(=O)N1CCC(S(=O)(=O)N(Cc2cn3ccc(-c4nnc(C(F)F)o4)cc3n2)c2ccccc2)CC1 [Compound 4225, N-((7-(5-(difluoromethyl)-1,3,4-oxadiazol-2-yl)imidazo[1,2-a]pyridin-2-yl)methyl)-1-(methylsulfonyl)-N-phenylpiperidine-4-sulfonamide]	530	94.4	> 50000
COC(=O)N1CCC(S(=O)(=O)N(Cc2cn3ccc(-c4nnc(C(F)F)o4)cc3n2)c2ccccc2)CC1 [Compound 4226, methyl 4-(N-((7-(5-(difluoromethyl)-1,3,4-oxadiazol-2-yl)imidazo[1,2-a]pyridin-2-yl)methyl)-N-phenylsulfamoyl)piperidine-1-carboxylate]	432	116	> 50000
CN(C)C(=O)N1CCC(S(=O)(=O)N(Cc2cn3ccc(-c4nnc(C(F)F)o4)cc3n2)c2ccccc2)CC1 [Compound 4227, 4—(N-((7-(5-(difluoromethyl)-1,3,4-oxadiazol-2-yl)imidazo[1,2-a]pyridin-2-yl)methyl)-N-phenylsulfamoyl)-N, N-dimethylpiperidine-1-carboxamide]	241	208	> 50000
O=S(=O)(C1CCN(c2ncccn2)CC1)N(Cc1cn2ccc(-c3nnc(C(F)F)o3)cc2n1)c1ccccc1 [Compound 4228, N-((7-(5-(difluoromethyl)-1,3,4-oxadiazol-2-yl)imidazo[1,2-a]pyridin-2-yl)methyl)-N-phenyl-1-(pyrimidin-2-yl)piperidine-4-sulfonamide]	486	103	> 50000
